Test results published in US20250295628A1 (priority 2022, published 2025).

Tests used:
[1] = Solid stability: main component content over time under storage conditions (Example 15); type: physicochemical
[2] = tested on: chronic cadmium poisoning model rabbits; assay: Cadmium-removing effect by intravenous drip in chronic cadmium poisoning rabbits (Example 18); type: in vivo, New Zealand rabbits; conditions: for Urine β2-microglobulin values: after four weeks of administration
Description: 205 male New Zealand rabbits, 1.8˜2.2 kg, were randomly divided into a blank control group with 25 rabbits and chronic cadmium poisoning groups with a total of 180 rabbits. The model rabbits were ear margin intravenous injected with a mixed solution containing 1.5 μmol/kg CdCl2 and 30 μmol/kg thioethanol (ME) according to weight, once/d for continuous 5 days, and observed for 35 days. After 35 days, qualified rabbits were selected according to weight, including 18 rabbits in the blank group and 162 rabbits in the poisoning group. The 162 rabbits in the poisoning group were randomly divided into a model group, D3 high-dose group, D3 low-dose group, compound 3B high-dose group, compound 3B low-dose group, composition 3 high-dose group, composition 3 low-dose group, composition 3-powder injection high-dose group, composition 3-powder injection low-dose group, with 18 rabbits in each group. Rabbits in the mode group and the blank group were administered by intravenous drip with the same volume of normal saline, with a rate of 30 drops/min for a dripping time of about 2 h, 1 time/d, 5 d/week. After administration on the last day of week 1, week 2 and week 4, the urine of 0 h˜6 h and the urine of 7 h˜24 h of rabbits were respectively collected; the content of cadmium in blood, urine and kidney, and the cadmium-removing rate from blood and kidney were determined, and the results are shown in Table 6.

[3] = Acute toxicity in SD rats (Example 16); type: in vivo; conditions: both sexes, rat, in vivo, 3 g/kg, single intravenous injection, read-out: rat MTD, injected
Description: (§1) SPF-grade SD rats, 180˜220 g, 70 males and 70 females, were divided into 7 groups, 10 males and 10 females in each group. Rats in group 1 were intravenous injected with 3 g/kg of D3; rats in group 2 were intravenous injected with 3 g/kg of composition 3; rats in group 3 were intravenous injected with 3 g/kg of composition 3-powder injection; rats in group 4 were orally administrated with 5 g/kg of composition 3-enteric-coated granule; rats in group 5 were orally administrated with 5 g/kg of composition 3-enteric-coated capsule; rats in group 6 were orally administrated with 5 g/kg of composition 3-enteric-coated sustained-release capsule; group 7 was a blank group. After administration, the poisoning situation was observed every day, and no obvious poisoning reaction was found.

SD rats = assay: Acute toxicity in SD rats (Example 16); type: in vivo; conditions: intravenous 3 g/kg, observed 14 days
Description: as §1

[4] = Compatibility stability and pH of 2 mg/ml solutions in normal saline and 5% glucose injection at room temperature (Example 15); type: physicochemical; conditions: for main component content in solution: 2 mg/ml, room temperature
[5] = Solid stability of compositions 1-11 and compounds 1A-11A: main component content over time under different conditions (Example 37, Table 32); type: physicochemical
Method: Compositions 1-11 and compounds 1A-11A were placed at environments of −25° C., 5±3° C., 25±2° C./60±5% RH, 40±2° C./75±5% RH, 60° C. for 0 d, 5 d and 10 d (d refers to day), respectively, and changes of the main component content (the main component content of 0 day was converted to 100%) were measured, the results are shown in Table 32.

[6] = Acute toxicity in beagles (Example 16); type: in vivo; conditions: both sexes, beagle, dog, in vivo, 2 g/kg, single intravenous injection, read-out: dog MTD, injected
Description: (§2) Ordinary grade beagles 8˜10 kg, 70 males and 70 females, were divided into 7 groups, 10 males and 10 females in each group. Beagles in group 1 were intravenous injected with 2 g/kg of D3; beagles in group 2 were intravenous injected with 2 g/kg of composition 3; beagles in group 3 were intravenous injected with 2 g/kg of composition 3-powder injection; beagles in group 4 were orally administrated with 5 g/kg of composition 3-enteric-coated granule; beagles in group 5 were orally administrated with 5 g/kg of composition 3-enteric-coated capsule; beagles in group 6 were orally administrated with 5 g/kg of composition 3-enteric-coated sustained-release capsule; group 7 was a blank group. After administration, the poisoning situation was observed every day, and no obvious poisoning reaction was found.

beagles = assay: Acute toxicity in beagles (Example 16); type: in vivo; conditions: intravenous 2 g/kg, observed 14 days
Description: as §2

[7] = 1 w of treatment, high-dose group (D3 433, composition 3 and composition 3-preparation 108 mg/kg)
[8] = 1 w of treatment, high-dose group (D3 433, compound 3B 83.5, composition 3 and composition 3-preparation 108 mg/kg)
[9] = 1 w of treatment, low-dose group (D3 108, composition 3 and composition 3-preparation 27 mg/kg)
[10] = 1 w of treatment, low-dose group (D3 108, compound 3B 21, composition 3 and composition 3-preparation 27 mg/kg)
[11] = 2 w of treatment, high-dose group (D3 433, composition 3 and composition 3-preparation 108 mg/kg)
[12] = 2 w of treatment, high-dose group (D3 433, compound 3B 83.5, composition 3 and composition 3-preparation 108 mg/kg)
[13] = 2 w of treatment, low-dose group (D3 108, composition 3 and composition 3-preparation 27 mg/kg)
[14] = 2 w of treatment, low-dose group (D3 108, compound 3B 21, composition 3 and composition 3-preparation 27 mg/kg)
[15] = 4 w of treatment, high-dose group (D3 433, composition 3 and composition 3-preparation 108 mg/kg)
[16] = 4 w of treatment, high-dose group (D3 433, compound 3B 83.5, composition 3 and composition 3-preparation 108 mg/kg)
[17] = 4 w of treatment, low-dose group (D3 108, composition 3 and composition 3-preparation 27 mg/kg)
[18] = 4 w of treatment, low-dose group (D3 108, compound 3B 21, composition 3 and composition 3-preparation 27 mg/kg)

CSCCC(C(=O)[O-])N(CC(O)C(O)C(O)C(O)CO)C(=S)[S][Na].[Na+] [Composition D3, N-(2,3,4,5,6-pentahydroxyhexyl)-(N-disubstitutedsodium formate)-L-sodium methionate]
main component content ([1]; 5 ± 3° C., 0 d (converted to 100%)): 100% | main component content ([1]; 5 ± 3° C., 5 d): 97.3% | main component content ([1]; 5 ± 3° C., 10 d): 96.5% | main component content ([1]; 5 ± 3° C., 30 d): 90.8% | decrease of the main component content / stability on 180 d ([1]; 5±3° C., 180 d): about 18.8% | main component content ([1]; 5±3° C., 180 d): 81.2% | main component content ([1]; 25 ± 2° C./60 ± 5% RH, 0 d (converted to 100%)): 100% | main component content ([1]; 25 ± 2° C./60 ± 5% RH, 5 d): 95.1% | main component content ([1]; 25 ± 2° C./60 ± 5% RH, 10 d): 90.3% | main component content ([1]; 25 ± 2° C./60 ± 5% RH, 30 d): 84.6% | main component content ([1]; 25 ± 2° C./60 ± 5% RH, 180 d): 64.2% | main component content ([1]; 40 ± 2° C./75 ± 5% RH, 0 d (converted to 100%)): 100% | main component content ([1]; 40 ± 2° C./75 ± 5% RH, 5 d): 91.2% | main component content ([1]; 40 ± 2° C./75 ± 5% RH, 10 d): 84.3% | main component content ([1]; 40 ± 2° C./75 ± 5% RH, 30 d): 60.3% | main component content ([1]; −25° C., 0 d (converted to 100%)): 100% | main component content ([1]; −25° C., 5 d): 101.2% | main component content ([1]; −25° C., 10 d): 99.8% | main component content ([1]; −25° C., 30 d): 100.7% | main component content ([1]; −25° C., 180 d): 99.9% | Removing rate (cadmium in blood) [2, 7]: 13.9% | Removing rate (cadmium in kidney) [2, 7]: 47.8% | Cadmium in blood [2, 8]: 89.45 ± 13.31 µg/L | Cadmium in kidney [2, 8]: 6.53 ± 2.16 µg/L | Removing rate (cadmium in blood) [2, 9]: 6.8% | Removing rate (cadmium in kidney) [2, 9]: 39.7% | Cadmium in blood [2, 10]: 96.60 ± 6.31 µg/L | Cadmium in kidney [2, 10]: 7.42 ± 3.83 µg/L | Removing rate (cadmium in blood) [2, 11]: 16.9% | Removing rate (cadmium in kidney) [2, 11]: 77.0% | Cadmium in blood [2, 12]: 61.39 ± 12.47 µg/L | Cadmium in kidney [2, 12]: 3.36 ± 1.08 µg/L | Removing rate (cadmium in blood) [2, 13]: 0.07% | Removing rate (cadmium in kidney) [2, 13]: 54.0% | Cadmium in blood [2, 14]: 68.54 ± 13.39 µg/L | Cadmium in kidney [2, 14]: 5.92 ± 2.01 µg/L | Removing rate (cadmium in blood) [2, 15]: 35.8% | Removing rate (cadmium in kidney) [2, 15]: 91.7% | Cadmium in blood [2, 16]: 17.67 ± 6.84 µg/L | Cadmium in kidney [2, 16]: 1.85 ± 0.52 µg/L | Removing rate (cadmium in blood) [2, 17]: 11.1% | Removing rate (cadmium in kidney) [2, 17]: 75.8% | Cadmium in blood [2, 18]: 24.34 ± 8.38 µg/L | Cadmium in kidney [2, 18]: 3.93 ± 1.16 µg/L | Urine β2-microglobulin values ([2]; high-dose group (D3 433, compound 3B 83.5, composition 3 and composition 3-preparation 108 mg/kg)): 161.64 ± 45.18 ng/L | Urine β2-microglobulin values ([2]; low-dose group (D3 108, compound 3B 21, composition 3 and composition 3-preparation 27 mg/kg)): 197.15 ± 31.66 ng/L | MTD at 14 d [3]: > 3000 mg/kg | acute toxicity observation (SD rats): no obvious toxicity | pH ([4]; 2 mg/ml solution in 5% glucose injection): 9.7 | pH ([4]; 2 mg/ml solution in normal saline): 9.7 | main component content in solution ([4]; 5% glucose injection, 0 h (converted to 100%)): 100% | main component content in solution ([4]; 5% glucose injection, 1 h): 90% | main component content in solution ([4]; 5% glucose injection, 2 h): 81% | main component content in solution ([4]; 5% glucose injection, 4 h): 69% | main component content in solution ([4]; 5% glucose injection, 8 h): 54% | main component content in solution ([4]; normal saline, 0 h (converted to 100%)): 100% | main component content in solution ([4]; normal saline, 1 h): 95% | main component content in solution ([4]; normal saline, 2 h): 83% | main component content in solution ([4]; normal saline, 4 h): 73% | main component content in solution ([4]; normal saline, 8 h): 71% | main component content ([5]; 5 ± 3° C., 0 d (0 day content converted to 100%)): 100% | main component content ([5]; 5 ± 3° C., 5 d): 97.3% | main component content ([5]; 5 ± 3° C., 10 d): 96.5% | main component content ([5]; 25 ± 2° C./60 ± 5% RH, 0 d (0 day content converted to 100%)): 100% | main component content ([5]; 25 ± 2° C./60 ± 5% RH, 5 d): 95.1% | main component content ([5]; 25 ± 2° C./60 ± 5% RH, 10 d): 90.3% | main component content ([5]; 40 ± 2° C./75 ± 5% RH, 0 d (0 day content converted to 100%)): 100% | main component content ([5]; 40 ± 2° C./75 ± 5% RH, 5 d): 91.2% | main component content ([5]; 40 ± 2° C./75 ± 5% RH, 10 d): 84.2% | main component content ([5]; 60° C., 0 d (0 day content converted to 100%)): 100% | main component content ([5]; 60° C., 5 d): 65.6% | main component content ([5]; 60° C., 10 d): 64.2% | main component content ([5]; −25° C., 0 d (0 day content converted to 100%)): 100% | main component content ([5]; −25° C., 5 d): 101.2% | main component content ([5]; −25° C., 10 d): 99.8% | MTD at 14 d [6]: > 2000 mg/kg | acute toxicity observation (beagles): no obvious toxicity
